From patent publication US9034352B2, “Microbicide combinations containing silver” (Rohm and Haas Company, priority 2006, dated 2015) come the findings set out here.

By MIC is commonly meant the lowest concentration that inhibits growth of the organism.

Test in all cases: Synergy test, high resolution MIC microtiter plate assay
What all share (format): cell-based

Assay [1] has as its system Samonella choleraesuis (S. choleraesuis—ATCC #10708). To be noted: for MIC: Salmonella enterica, read-out: MIC of component acting alone (end point). The text has this:
(§1) One measure of synergism is the industrially accepted method described by Kull, F. C.; Eisman, P. C.; Sylwestrowicz, H. D. and Mayer, R. L., in Applied Microbiology 9:538-541 (1961), using the ratio determined by the formula: Ca/CA+Cb/CB=Synergy Index (“SI”) wherein:
(§2) CA=concentration of compound A (first component) in ppm, acting alone, which produced an end point (MIC of Compound A).
(§3) Ca=concentration of compound A in ppm, in the mixture, which produced an end point.
(§4) CB=concentration of compound B (second component) in ppm, acting alone, which produced an end point (MIC of Compound B).
(§5) Cb=concentration of compound B in ppm, in the mixture, which produced an end point.
(§6) When the sum of Ca/CA and Cb/CB is greater than one, antagonism is indicated. […] The lower the SI, the greater the synergy shown by that particular mixture. The minimum inhibitory concentration (MIC) of an antimicrobial compound is the lowest concentration tested under a specific set of conditions that prevents the growth of added microorganisms.
(§7) Synergy tests were conducted using standard microtiter plate assays with media designed for optimal growth of the test microorganism. Soybean Casein Digest Broth (Tryptic Soy Broth, TSB medium) or minimal salt medium supplemented with 0.2% glucose and 0.1% yeast extract (M9GY medium) was used for testing bacteria; Potato Dextrose Broth (PDB medium) was used for testing yeast and mold. In this method, a wide range of combinations of microbicides was tested by conducting high resolution MIC assays in the presence of various concentrations of the biocides. High resolution MICs were determined by adding varying amounts of microbicide to one column of a microtitre plate and doing subsequent ten-fold dilutions using an automated liquid handling system.
The synergy of the combinations of the present invention was determined against four bacteria, gram positive Staphylococcus aureus (S. aureus—ATCC #6538) and gram negative Pseudomonas aeruginosa (P. aeruginosa—ATCC #15442), Samonella choleraesuis (S. choleraesuis—ATCC #10708) and Esherichia coli (E. coli—ATCC #8739), a yeast, Candida albicans (C. albicans—ATCC 10231), and a mold, Aspergillus niger (A. niger—ATCC 16404). The bacteria were used at a concentration of about 1-6×10^6 bacteria per mL and the yeast and mold at 1-5×10^5 fungi per mL. These microorganisms are representative of natural contaminants in many consumer and industrial applications. […] (yeast and mold) or 30° C. (bacteria).
(§8) The end point values in the following examples for the silver-polymer complex are reported on an active silver ion basis.

Assay [2] relates to Aspergillus niger (A. niger—ATCC 16404). To be noted: A. niger, Ag-polymer on active silver ion basis; for MIC: Aspergillus niger, read-out: MIC of component acting alone (end point).
From the text: as §1, §2, §3, §4, §5, §6, §7
(§9) The bacteria were used at a concentration of about 1-6×10^6 bacteria per mL and the yeast and mold at 1-5×10^5 fungi per mL. These microorganisms are representative of natural contaminants in many consumer and industrial applications. […] (yeast and mold) or 30° C. (bacteria).

Assay [3] deals with Pseudomonas aeruginosa (P. aeruginosa—ATCC #15442). The note with it: Pseudomonas aeruginosa, ATCC15442, P. aeruginosa, Ag-polymer on active silver ion basis, read-out: MIC of component acting alone (end point).
From the text: as §1, §2, §3, §4, §5, §6, §7, §9

The test system of assay [4] is Staphylococcus aureus (S. aureus—ATCC #6538). To be noted: S. aureus, Ag-polymer on active silver ion basis; for MIC: Staphylococcus aureus, ATCC6538, read-out: MIC of component acting alone (end point).
From the text: as §1, §2, §3, §4, §5, §6, §7, §9

Assay [5] relates to Candida albicans (C. albicans—ATCC 10231). The note with it: C. albicans, Ag-polymer on active silver ion basis; for MIC: Candida albicans, ATCC10231, read-out: MIC of component acting alone (end point).
From the text: as §1, §2, §3, §4, §5, §6, §7
(§10) […]. The bacteria were used at a concentration of about 1-6×10^6 bacteria per mL and the yeast and mold at 1-5×10^5 fungi per mL. These microorganisms are representative of natural contaminants in many consumer and industrial applications. […] (yeast and mold) or 30° C. (bacteria).
as §8

For assay [6], the system named is Esherichia coli (E. coli—ATCC #8739). To be noted: Ag-polymer on active silver ion basis; for MIC: Escherichia coli, read-out: MIC of component acting alone (end point).
From the text: as §1, §2, §3, §4, §5, §6, §7, §10, §8

Setting [7] is: ATCC16404, 168 h, contact time 7 days.
The mark [8] stands for this setting: S. choleraesuis, contact time 48 hour, Ag-polymer on active silver ion basis.

Like-named read-outs stand apart in the source and are kept apart here.

Turning to `CCCCCCCCn1sc(Cl)c(Cl)c1=O` [DCOIT, 4,5-dichloro-2-n-octyl-4-isothiazolin-3-one, reference compound], the MIC in assay [1] is 1.5 µg/mL; in assay [2] (setting [7]), 2 µg/mL; in assay [3] (contact time 24 hour), 1.5 µg/mL; in assay [3] (contact time 48 hour) it was 2.9 µg/mL; in assay [4] (contact time 24 hour), 0.29 µg/mL; in assay [4] (contact time 48 hour) it was 0.29 µg/mL. In addition, the MIC was determined as 0.15 µg/mL in assay [5] (contact time 48 hour); 0.29 µg/mL in assay [6] (ATCC8739, contact time 24 hour); 0.43 µg/mL in assay [6] (ATCC8739, contact time 48 hour).

In the case of `CCCCCCCCn1sccc1=O` [OIT, 2-n-octyl-4-isothiazolin-3-one, reference compound], the minimal inhibitory concentration (MIC) in assay [1] (S. choleraesuis, contact time 24 hour, Ag-polymer on active silver ion basis) amounted to 361 µg/mL; in assay [1] (setting [8]), 361 µg/mL; in assay [2] (ATCC16404, 72 h, contact time 3 days) it was 3.9 µg/mL; in assay [2] (setting [7]) it was 5.76 µg/mL; in assay [3] (contact time 24 hour), 444 µg/mL; in assay [4] (contact time 24 hour), 72.8 µg/mL. Further, the MIC turned out to be 72.8 µg/mL in assay [4] (contact time 48 hour); 0.81 µg/mL in assay [5] (contact time 24 hour); 0.99 µg/mL in assay [5] (contact time 48 hour); 294 µg/mL in assay [6] (ATCC8739, contact time 24 hour); 294 µg/mL in assay [6] (ATCC8739, contact time 48 hour).

For “C12-C16 alkyl dimethylbenzylammonium chloride [reference compound]”, the “MIC of component acting alone (end point)” value came out at 6.9 ppm in assay [1] (setting [8]); 194 ppm in assay [2] (contact time 3 days); 603 ppm in assay [2] (contact time 7 days); 19.4 ppm in assay [4] (contact time 24 hour); 19.4 ppm in assay [4] (contact time 48 hour); 40.3 ppm in assay [5] (contact time 24 hour). For the same compound, the results for the “MIC of component acting alone (end point)” value in assay [5] (contact time 48 hour) and in assay [6] (contact time 48 hour) were 98 ppm and 4.9 ppm, respectively.
